According to patent US7326703B2, “(1,10B-Dihydro-2-(aminocarbonyl-phenyl)-5H-pyrazolo[1,5-c][1,3]benzoxazin-5-yl)phenyl methanone derivatives as HIV viral replication inhibitors” (priority 2004, dated 2008):
Read-outs that look alike come from different tables or passages of the source.

Tests used:
[1] = tested on: HIV-1 strain LAI; assay: Cellular anti-viral assay in MT4-LTR-EGFP cells, wild type HIV-1 strain LAI; assay type: cell-based; conditions: Human immunodeficiency virus 1, 72 h, read-out: Activity class for HIV-1-LAI test
Procedure: (§1) The compounds were tested in a cellular assay using the MT4-LTR-EGFP cells for anti-viral activity. […] The cellular assay was performed according to the following procedure.
(§2) HIV- or mock-infected MT4-LTR-EGFP cells were incubated for three days in the presence of various concentrations of the inhibitor. Upon infection, the GFP reporter is activated by the viral tat protein. At the end of the incubation period, the GFP signal was measured. In the virus control samples (in the absence of any inhibitor) the maximal fluorescent signal was obtained. The inhibitory activity of the compound was monitored on the virus-infected cells and was expressed as EC50 and EC90. These values represent the amount of the compound required to protect 50% and 90%, respectively, of the cells from virus infection. The toxicity of the compound was measured on the mock-infected cells and was expressed as CC50, which represents the concentration of compound required to inhibit the growth of the cells by 50%. The selectivity index (SI) (ratio CC50/EC50) is an indication of the selectivity of the anti-HIV activity of the inhibitor.

[2] = tested on: HIV-1-MDR; assay: Cellular anti-viral assay in MT4-LTR-EGFP cells, multi-drug resistant HIV-1 virus; assay type: cell-based; conditions: Human immunodeficiency virus 1, 72 h, read-out: Activity class for HIV-1-MDR test
Procedure: as §1, §2

[3] = MT4-LTR-EGFP cells, three days incubation, GFP signal, average EC50 used where more than one run

Structure (SMILES) | EC50 [1, 3] [nM] | EC50 [2] [µM] | EC50 [1] [nM]
CN(C)CCNC(=O)c1ccc(C2=NN3C(C(=O)c4ccc(F)cc4)Oc4ccccc4C3C2)cc1 (stereo not drawn) [Compound 13] | 1000 to 10000 | > 10 | 
O=C(NCCN1CCCC1)c1ccc(C2=NN3C(C(=O)c4ccc(F)cc4)Oc4ccccc4C3C2)cc1 (stereo not drawn) [Compound 40] | 1000 to 10000 | > 10 | 
O=C(c1ccc(F)cc1)C1Oc2ccccc2C2CC(c3ccc(C(=O)N4CCN(Cc5ccccc5)CC4)cc3)=NN12 (stereo not drawn) [Compound 15] | > 10000 | > 10 | 
O=C(NC1CCCC1)c1ccc(C2=NN3C(C(=O)c4ccc(C5CCCCC5)cc4)Oc4ccccc4C3C2)cc1 (stereo not drawn) [Compound 54] | 1000 to 10000 | 1 to 10 | 
CC(C)NC(=O)c1ccc(C2=NN3C(C(=O)c4ccc(F)cc4)Oc4ccccc4C3C2)cc1 (stereo not drawn) [Compound 33] | < 1000 | < 1 | 
O=C(NCC1CCCO1)c1ccc(C2=NN3C(C(=O)c4ccc(F)cc4)Oc4ccccc4C3C2)cc1 (stereo not drawn) [Compound 12] | 1000 to 10000 | > 10 | 
COc1ccc(CNC(=O)c2ccc(C3=NN4C(C(=O)c5ccc(F)cc5)Oc5ccccc5C4C3)cc2)cc1 (stereo not drawn) [Compound 21] | > 10000 | > 10 | 
CN(C)CCCN(C)C(=O)c1ccc(C2=NN3C(C(=O)c4ccc(F)cc4)Oc4ccccc4C3C2)cc1 (stereo not drawn) [Compound 20] | 1000 to 10000 | 1 to 10 | 
CN1CCC(NC(=O)c2ccc(C3=NN4C(C(=O)c5ccc(F)cc5)Oc5ccccc5C4C3)cc2)CC1 (stereo not drawn) [Compound 34] | 1000 to 10000 | > 10 | 
O=C(NCC1CCCCC1)c1ccc(C2=NN3C(C(=O)c4ccc(F)cc4)Oc4ccccc4C3C2)cc1 (stereo not drawn) [Compound 2] | > 10000 | > 10 | 
O=C(NC1CCCC1)c1ccc(C2=NN3C(C(=O)c4ccc([N+](=O)[O-])cc4)Oc4ccccc4C3C2)cc1 (stereo not drawn) [Compound 52] | < 1000 | < 1 | 
CN(C)CCN(C)C(=O)c1ccc(C2=NN3C(C(=O)c4ccc(F)cc4)Oc4ccccc4C3C2)cc1 (stereo not drawn) [Compound 39] | < 1000 | 1 to 10 | 
O=C(NC1CCCC1)c1ccc(C2=NN3C(C(=O)c4ccc(F)cc4)Oc4ccccc4C3C2)cc1 (stereo not drawn) [Compound 18] | < 1000 |  | 
COc1ccc(C(=O)C2Oc3ccccc3C3CC(c4ccc(C(=O)NC5CCCC5)cc4)=NN23)cc1 (stereo not drawn) [Compound 51] |  | < 1 | 
CCc1ccc(C(=O)C2Oc3ccccc3C3CC(c4ccc(C(=O)NC5CCCC5)cc4)=NN23)cc1 (stereo not drawn) [Compound 47] | < 1000 | < 1 | 
O=C(NCc1ccccn1)c1ccc(C2=NN3C(C(=O)c4ccc(Br)cc4)Oc4ccccc4C3C2)cc1 (stereo not drawn) [Compound 4] | 1000 to 10000 |  | 
O=C(NC1CCCC1)c1ccc(C2=NN3C(C(=O)c4ccc(C(F)(F)F)cc4)Oc4ccccc4C3C2)cc1 (stereo not drawn) [Compound 55] | < 1000 | < 1 | 
N#Cc1ccc(C(=O)C2Oc3ccccc3C3CC(c4ccc(C(=O)NC5CCCC5)cc4)=NN23)cc1 (stereo not drawn) [Compound 44, 4-[5-(4-Cyano-Benzoyl)-1,10b-Dihydro-5H-Pyrazolo[1,5-c][1,3]Benzoxazin-2-yl]-N-Cyclopentyl-Benzamide] |  | < 1 | < 1000
O=C(c1ccc(F)cc1)C1Oc2ccccc2C2CC(c3ccc(C(=O)N4CCCCCC4)cc3)=NN12 (stereo not drawn) [Compound 17] | < 1000 | > 10 | 
CN(C)CCN(Cc1ccccc1)C(=O)c1ccc(C2=NN3C(C(=O)c4ccc(F)cc4)Oc4ccccc4C3C2)cc1 (stereo not drawn) [Compound 43] | 1000 to 10000 | > 10 | 
O=C(NCc1ccco1)c1ccc(C2=NN3C(C(=O)c4ccc(F)cc4)Oc4ccccc4C3C2)cc1 (stereo not drawn) [Compound 31] | 1000 to 10000 | 1 to 10 | 
O=C(Nc1cccnc1)c1ccc(C2=NN3C(C(=O)c4ccc(F)cc4)Oc4ccccc4C3C2)cc1 (stereo not drawn) [Compound 29] | 1000 to 10000 | < 1 | 
CCN(CC)CCNC(=O)c1ccc(C2=NN3C(C(=O)c4ccc(F)cc4)Oc4ccccc4C3C2)cc1 (stereo not drawn) [Compound 42] | 1000 to 10000 | > 10 | 
CN(C)CCCNC(=O)c1ccc(C2=NN3C(C(=O)c4ccc(F)cc4)Oc4ccccc4C3C2)cc1 (stereo not drawn) [Compound 3] | > 10000 | > 10 | 

Structure (SMILES) | EC50 [1, 3] [nM] | EC50 [2] [µM] | EC50 [1] [nM]
O=C(c1ccc(F)cc1)C1Oc2ccccc2C2CC(c3ccc(C(=O)N4CCc5ccccc5C4)cc3)=NN12 (stereo not drawn) [Compound 11] | > 10000 | > 10 | 
CCCc1ccc(C(=O)C2Oc3ccccc3C3CC(c4ccc(C(=O)NC5CCCC5)cc4)=NN23)cc1 (stereo not drawn) [Compound 45] | < 1000 | < 1 | 
COc1ccc(OC)c(CNC(=O)c2ccc(C3=NN4C(C(=O)c5ccc(F)cc5)Oc5ccccc5C4C3)cc2)c1 (stereo not drawn) [Compound 25] | 1000 to 10000 | 1 to 10 | 
COc1ccc(N(C)C(=O)c2ccc(C3=NN4C(C(=O)c5ccc(F)cc5)Oc5ccccc5C4C3)cc2)cc1 (stereo not drawn) [Compound 28] | < 1000 | < 1 | 
O=C(NC1CCCC1)c1ccc(C2=NN3C(C(=O)c4cccc(Br)c4)Oc4ccccc4C3C2)cc1 (stereo not drawn) [Compound 58] | < 1000 | < 1 | 
O=C(NC1CCCC1)c1ccc(C2=NN3C(C(=O)c4ccc(Br)cc4)Oc4ccccc4C3C2)cc1 (stereo not drawn) [Compound 6] | < 1000 | > 10 | 
O=C(NC1CCC1)c1ccc(C2=NN3C(C(=O)c4ccc(F)cc4)Oc4ccccc4C3C2)cc1 (stereo not drawn) [Compound 38] | < 1000 | 1 to 10 | 
O=C(NCc1ccccn1)c1ccc(C2=NN3C(C(=O)c4ccc(F)cc4)Oc4ccccc4C3C2)cc1 (stereo not drawn) [Compound 16] | > 10000 | > 10 | 
CSc1ccc(C(=O)C2Oc3ccccc3C3CC(c4ccc(C(=O)NC5CCCC5)cc4)=NN23)cc1 (stereo not drawn) [Compound 46] | < 1000 | < 1 | 
O=C(NC1CCCC1)c1ccc(C2=NN3C(C(=O)c4ccc(N5CCOCC5)cc4)Oc4ccccc4C3C2)cc1 (stereo not drawn) [Compound 48] | 1000 to 10000 | 1 to 10 | 
CCNC(=O)c1ccc(C2=NN3C(C(=O)c4ccc(F)cc4)Oc4ccccc4C3C2)cc1 (stereo not drawn) [Compound 32] | > 10000 | 1 to 10 | 
CS(=O)(=O)c1ccc(C(=O)C2Oc3ccccc3C3CC(c4ccc(C(=O)NC5CCCC5)cc4)=NN23)cc1 (stereo not drawn) [Compound 53] | < 1000 | < 1 | 
O=C(NCc1cccc(F)c1)c1ccc(C2=NN3C(C(=O)c4ccc(F)cc4)Oc4ccccc4C3C2)cc1 (stereo not drawn) [Compound 10] | > 10000 | > 10 | 
CN1CCN(C(=O)c2ccc(C3=NN4C(C(=O)c5ccc(F)cc5)Oc5ccccc5C4C3)cc2)CC1 (stereo not drawn) [Compound 35] | < 1000 | > 10 | 
O=C(NCCc1ccccn1)c1ccc(C2=NN3C(C(=O)c4ccc(Br)cc4)Oc4ccccc4C3C2)cc1 (stereo not drawn) [Compound 7] | 1000 to 10000 | > 10 | 
O=C(NCc1cccs1)c1ccc(C2=NN3C(C(=O)c4ccc(F)cc4)Oc4ccccc4C3C2)cc1 (stereo not drawn) [Compound 30] | > 10000 | > 10 | 
COc1ccc(NC(=O)c2ccc(C3=NN4C(C(=O)c5ccc(F)cc5)Oc5ccccc5C4C3)cc2)cc1 (stereo not drawn) [Compound 26] | 1000 to 10000 | 1 to 10 | 
CC(C)(C)OC(=O)N1CCN(C(=O)c2ccc(C3=NN4C(C(=O)c5ccc(F)cc5)Oc5ccccc5C4C3)cc2)CC1 (stereo not drawn) [Compound 14] | > 10000 | > 10 | 
CN1CCN(C(=O)c2ccc(C3=NN4C(C(=O)c5ccc(Br)cc5)Oc5ccccc5C4C3)cc2)CC1 (stereo not drawn) [Compound 8] |  | > 10 | 
COc1ccc(CNC(=O)c2ccc(C3=NN4C(C(=O)c5ccc(Br)cc5)Oc5ccccc5C4C3)cc2)cc1 (stereo not drawn) [Compound 5] | < 1000 | > 10 | 
CC(C)(C)NCCNC(=O)c1ccc(C2=NN3C(C(=O)c4ccc(F)cc4)Oc4ccccc4C3C2)cc1 (stereo not drawn) [Compound 41] | 1000 to 10000 | > 10 | 
O=C(NC1CCCC1)c1ccc(C2=NN3C(C(=O)c4ccc(N5CCCCC5)cc4)Oc4ccccc4C3C2)cc1 (stereo not drawn) [Compound 49] | > 10000 |  | 
C=CCN(C(=O)c1ccc(C2=NN3C(C(=O)c4ccc(F)cc4)Oc4ccccc4C3C2)cc1)C1CCCCC1 (stereo not drawn) [Compound 37] | 1000 to 10000 | > 10 | 
CN(C(=O)c1ccc(C2=NN3C(C(=O)c4ccc(F)cc4)Oc4ccccc4C3C2)cc1)C1CCCCC1 (stereo not drawn) [Compound 36] | < 1000 |  | 
